{
  "source": "patent US20040214864A1",
  "about": "“Novel compounds” (priority 2000, published 2004)",
  "note": "Where a name gives a salt, the structure may show the parent alone.",
  "data": [
    {"units": {"melting point": "°C"}, "values": [
      {"compound": "O=C(c1ccc(-c2nn(Cc3cccc(Cl)c3)c(=S)[nH]2)cc1)N1CCN(c2cccc(Cl)c2)CC1", "note": "(as salt: hydrochloride) [Example 8, 2-[(3-Chlorophenyl)methyl]-5-[4-[[4-(3-chlorophenyl)-1-piperazinyl]carbonyl]phenyl]-2,4-dihydro-3H-1,2,4-triazole-3-thione]", "melting point": "260 to 262"},
      {"compound": "O=C(O)c1ccc(-c2nn(Cc3cccc(Cl)c3)c(=S)[nH]2)cc1", "note": "[Example 1, 4-[1-[(3-Chlorophenyl)methyl]-4,5-dihydro-5-thioxo-1H-1,2,4-triazol-3-yl]-benzoic acid]", "melting point": 302},
      {"compound": "COC(=O)c1ccc(-c2nn(Cc3cccc(Cl)c3)c(=S)[nH]2)cc1", "note": "[Example 2, Methyl 4-[1-[(3-Chlorophenyl)methyl]-4,5-dihydro-5-thioxo-1H-1,2,4-triazol-3-yl]-benzoate]", "melting point": "263.5 to 264.5"},
      {"compound": "NC(=O)c1ccc(-c2nn(Cc3cccc(Cl)c3)c(=S)[nH]2)cc1", "note": "[Example 3, 4-[1-[(3-Chlorophenyl)methyl]-4,5dihydro-5-thioxo-1H-1,2,4-triazol-3-yl]-benzamide]", "melting point": "310 to 312"},
      {"compound": "CN(C)C(=O)c1ccc(-c2nn(Cc3cccc(Cl)c3)c(=S)[nH]2)cc1", "note": "[Example 4, 4-[1-[(3-Chlorophenyl)methyl]-4,5-dihydro-5-thioxo-1H-1,2,4-triazol-3-yl]-N,N-dimethyl-benzamide]", "melting point": "302 to 304"},
      {"compound": "CC(C)CCNC(=O)c1ccc(-c2nn(Cc3cccc(Cl)c3)c(=S)[nH]2)cc1", "note": "[Example 5, 4-[1-[(3-Chlorophenyl)methyl]-4,5-dihydro-5-thioxo-1H-1,2,4-triazol-3-yl]-N-(3-methylbutyl)-benzamide]", "melting point": "218 to 220"},
      {"compound": "C[C@@H](NC(=O)c1ccc(-c2nn(Cc3cccc(Cl)c3)c(=S)[nH]2)cc1)[C@@H](O)c1ccccc1", "note": "[Example 6, [1R, 2S]-4-[1-[(3-Chlorophenyl)methyl]-4,5-dihydro-5-thioxo-1H-1,2,4-triazol-3-yl]-N-(2-hydroxy-1-methyl-2-phenylethyl)-benzamide]", "melting point": "220 to 222"},
      {"compound": "O=C(NCCO)c1ccc(-c2nn(Cc3cccc(Cl)c3)c(=S)[nH]2)cc1", "note": "[Example 7, 4-[1-[(3-Chlorophenyl)methyl]-4,5-dihydro-5-thioxo-1H-1,2,4-triazol-3-yl]-N-(2-hydroxyethyl)-benzamide]", "melting point": "188 to 190"},
      {"compound": "O=C(O)c1ccccc1-c1nn(Cc2cccc(Cl)c2)c(=S)[nH]1", "note": "[Example 11, 2-[1-[(3-Chlorophenyl)methyl]-4,5-dihydro-5-thioxo-1H-1,2,4-triazol-3-yl]-benzoic acid]", "melting point": "234 to 238"},
      {"compound": "O=C(O)c1cccc(-c2nn(Cc3cccc(Cl)c3)c(=S)[nH]2)c1", "note": "[Example 12, 3-[1-[(3-Chlorophenyl)methyl]-4,5-dihydro-5-thioxo-1H-1,2,4-triazol-3-yl]-benzoic acid]", "melting point": "314 to 316"},
      {"compound": "NS(=O)(=O)c1ccc(-c2nn(Cc3cccc(Cl)c3)c(=S)[nH]2)cc1", "note": "[Example 13, 4-[1-[(3-chlorophenyl)methyl]-4,5dihydro-5-thioxo-1H-1,2,4-triazol-3-yl]-benzenesulfonamide]", "melting point": "281 to 283"},
      {"compound": "COC(=O)C(CO)NC(=O)c1cccc(-c2nn(Cc3cccc(Cl)c3)c(=S)[nH]2)c1", "note": "(stereo not shown) [Example 14]", "melting point": "188 to 196"},
      {"compound": "CN(C)CC(C)(C)CNC(=O)c1cccc(-c2nn(Cc3cccc(Cl)c3)c(=S)[nH]2)c1", "note": "[Example 15, 3-{1-[(3-Chlorophenyl)methyl]-1,2-dihydro-5thioxo-1H[1,2,4]triazol-3-yl}-N-(2-methyl-2-dimethylaminomethylpropyl)benzamide]", "melting point": "173 to 175"},
      {"compound": "CN(C)C(=O)c1cccc(-c2nn(Cc3cccc(Cl)c3)c(=S)[nH]2)c1", "note": "[Example 16, 3-{1-[(3-Chlorophenyl)methyl]-1,2-dihydro-5thioxo-1H[1,2,4]triazol-3-yl}-N,N-dimethylbenzamide]", "melting point": "184 to 187"},
      {"compound": "N#CCNC(=O)c1cccc(Cn2nc(-c3ccccc3Cl)[nH]c2=S)c1", "note": "[Example 17]", "melting point": "178 to 182"},
      {"compound": "O=C(NCCF)c1cccc(Cn2nc(-c3ccccc3Cl)[nH]c2=S)c1", "note": "[Example 18]", "melting point": "165 to 168"}
    ]}
  ]
}
